Results taken from ChEMBL document CHEMBL5053549, “Discovery of Potent and Novel Dual PARP/BRD4 Inhibitors for Efficient Treatment of Pancreatic Cancer” (J Med Chem, 2021).
Activity calls are given as the source filed them. The calls are words filed in the database; no cut-off is given here.

Assays:
SW1990 [1] = experiment: Induction of apoptosis in human SW1990 cells assessed as necrotic cells at 1 uM after 4 days in presence of 3 uM Olaparib by Annexin V-FITC and propidium iodide staining based flow cytometry (reference value: 1.89%); type: functional; conditions: time 4 day
[2] = target: Bromodomain-containing protein 4 (Homo sapiens, UniProt O60885); experiment: Inhibition of BRD4 expression in human SW1990 cells at 1 uM after 4 days by Q-PCR analysis; type: cell-based; conditions: time 4.0 day
SW1990 [3] = experiment: Induction of cell cycle arrest in human SW1990 cells assessed as accumulation of cells at G0/G1 phase at 2 uM incubated for 4 days by propidium iodide staining based flow cytometry (reference value: 64.79%); type: functional; conditions: time 4 day
SW1990 [4] = experiment: Induction of autophagy in human SW1990 cells assessed as reduction in p62 expression at 1 to 2 uM incubated for 4 days by immunofluorescence assay; type: functional, cell-based; conditions: dose 1-2 µM, time 4.0 day

## Cc1sc2c(c1C)C(c1ccc(Cl)cc1)=N[C@@H](CC(=O)OC(C)(C)C)c1nnc(C)n1-2
SW1990 [1]
  Activity: 5.53%

## CC[C@@H]1C(=O)N(C)c2cnc(N(C)c3ccc(-c4nc5c(C(N)=O)cccc5[nH]4)cc3OC)nc2N1C1CCCC1
[2]
  inhibition: Active
SW1990 [3]
  Activity: 77.56%
SW1990 [4]
  Activity: Active
